US10208071B2, “Use of agonists of formyl peptide receptor 2 for treating ocular inflammatory diseases” (Allergan, Inc., priority 2013, dated 2019)

Molecular target: FPR2 (Homo sapiens (Human), UniProt P25090)
Test: FLIPR Ca+2 response, HEK-Gα16 cells stably expressing the human FPR2 receptor (Table 4)
Format: cell-based
Conditions: for FPR2 (efficacy): efficacy in parentheses
In short: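 HEK-Gα16 cells stably expressing human FPR2, loaded with 2 μM Fluo-4 in HBSS/20 mM HEPES for 40 min at 37° C., then washed. Ligands added in HBSS/Hepes and Ca+2 responses recorded on FLIPR in relative fluorescence units.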

Sequence of FPR2 (P25090 whole entry): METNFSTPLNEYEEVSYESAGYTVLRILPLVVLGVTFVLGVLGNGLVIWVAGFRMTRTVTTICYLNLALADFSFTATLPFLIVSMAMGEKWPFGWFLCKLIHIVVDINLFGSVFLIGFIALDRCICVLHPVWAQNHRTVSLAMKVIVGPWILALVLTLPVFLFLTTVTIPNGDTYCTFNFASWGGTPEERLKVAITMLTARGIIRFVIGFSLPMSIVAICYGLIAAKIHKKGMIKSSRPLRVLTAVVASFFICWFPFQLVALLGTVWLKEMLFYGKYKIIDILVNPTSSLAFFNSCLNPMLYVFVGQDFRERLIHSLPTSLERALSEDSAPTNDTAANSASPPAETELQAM

EC50 [nM]	FPR2 (efficacy)	SMILES
4	nM (0.91)	CC1(CCc2ccccc2O)NC(=O)N(NC(=O)Nc2ccc(Br)cc2F)C1=O (stereo not drawn) [Compound 106, 1-(4-bromo-2-fluorophenyl)-3-{4-[2-(2-hydroxyphenyl)ethyl]-4-methyl-2,5-dioxoimidazolidin-1-yl}urea]
2.2	nM (0.79)	CC1(CCc2cccc(O)c2)NC(=O)N(NC(=O)Nc2ccc(Br)cc2F)C1=O (stereo not drawn) [Compound 107, 1-(4-bromo-2-fluorophenyl)-3-{4-[2-(3-hydroxyphenyl)ethyl]-4-methyl-2,5-dioxoimidazolidin-1-yl}urea]
2.1	nM (1.0)	CC1(CCc2cccc(O)c2)NC(=O)N(NC(=O)Nc2ccc(Br)cc2)C1=O (stereo not drawn) [Compound 108, 1-(4-bromophenyl)-3-{4-[2-(3-hydroxyphenyl)ethyl]-4-methyl-2,5-dioxoimidazolidin-1-yl}urea]
	nM (0.93)	CC1(CCc2ccccc2O)NC(=O)N(NC(=O)Nc2ccc(Br)cc2)C1=O (stereo not drawn) [Compound 109, 1-(4-bromophenyl)-3-{4-[2-(2-hydroxyphenyl)ethyl]-4-methyl-2,5-dioxoimidazolidin-1-yl}urea]
19.4	nM (0.98)	CC(C)CC(C)(NC(=O)Nc1ccc(Br)cc1)C(=O)O (stereo not drawn) [Compound 110, 2-{[(4-bromophenyl)carbamoyl]amino}-2,4-dimethylpentanoic acid]
19.1	nM (0.99)	CC(C)CC(C)(NC(=O)Nc1ccc(Br)cc1)C(=O)NCC(=O)O (stereo not drawn) [Compound 111, [(2-{[(4-bromophenyl)carbamoyl]amino}-2,4-dimethylpentanoyl)amino] acetic acid]
18.7	nM (1.0)	CCC(CC)(NC(=O)Nc1ccc(Br)cc1)C(=O)NCC(=O)O [Compound 113]
1.7	nM (0.99)	CC(C)C[C@H](NC(=O)Nc1ccc(Br)cc1)C(=O)NCC(=O)N(C)C [Compound 120, (2S)-2-{[(4-bromophenyl)carbamoyl]amino}-N-[2-(dimethylamino)-2-oxoethyl]-4-methylpentanamide]
4	nM (0.93)	CC(C)C[C@H](NC(=O)Nc1ccc(I)cc1)C(=O)O [Compound 121, (2S)-2-{[(4-iodophenyl)carbamoyl]amino}-4-methylpentanoic acid]
	nM (1.0)	CC(C)C[C@H](NC(=O)Nc1ccc(C(F)(F)F)cc1)C(=O)NCC(=O)O [Compound 124, {[(2S)-4-methyl-2-({[4-(trifluoromethyl)phenyl]carbamoyl}amino)pentanoyl]amino}acetic acid]
1.2	nM (1.0)	CCC[C@H](NC(=O)Nc1ccc(Br)cc1)C(=O)NCP(=O)(OC(C)C)OC(C)C [Compound 125, dipropan-2-yl ({[(2S)-2-{[(4-bromophenyl)carbamoyl]amino}pentanoyl]amino}methyl) phosphonate]
2	nM (0.91)	CC(C)C[C@H](NC(=O)Nc1ccc(Br)cc1)C(=O)NCS(=O)(=O)O [Compound 127, {[(2S)-2-{[(4-bromophenyl)carbamoyl]amino}-4-methylpentanoyl]amino} methanesulfonic acid]
16.8	nM (0.92)	CSc1ccc(NC(=O)N[C@@H](CC(C)C)C(=O)O)cc1 [Compound 128, (2S)-4-methyl-2-({[4-(methylsulfanyl)phenyl]carbamoyl}amino)pentanoic acid]
3	nM (1.0)	CSc1ccc(NC(=O)N[C@@H](CC(C)C)C(=O)NCC(=O)O)cc1 [Compound 130, {[(2S)-4-methyl-2-({[4-(methylsulfanyl)phenyl]carbamoyl}amino)pentanoyl]amino} acetic acid]
	nM (1.0)	CC(C)C[C@H](NC(=O)Nc1ccc(Br)cc1)C(=O)NCP(=O)(OC(C)C)OC(C)C [Compound 131, dipropan-2-yl ({[(2S)-2-{[(4-bromophenyl)carbamoyl]amino}-4-methylpentanoyl]amino}methyl)phosphonate]
16.2	nM (0.86)	CC(C)C1(CO)NC(=O)N(NC(=O)Nc2ccc(Br)cc2)C1=O (stereo not drawn) [Compound 132, 1-(4-bromophenyl)-3-[4-(hydroxymethyl)-2,5-dioxo-4-(propan-2-yl)imidazolidin-1-yl]urea]
2.7	nM (1.0)	CC(C)C1(CC(=O)NCCO)NC(=O)N(NC(=O)Nc2ccc(Br)cc2)C1=O (stereo not drawn) [Compound 133, 2-[1-{[(4-bromophenyl)carbamoyl]amino}-2,5-dioxo-4-(propan-2-yl)imidazolidin-4-yl]-N-(2-hydroxyethyl)acetamide]
3.7	nM (0.96)	CC(C)C[C@H](NC(=O)Nc1ccc(C(F)(F)F)cc1)C(=O)NCc1nnn[nH]1 [Compound 136, (2S)-4-methyl-N-(1H-tetrazol-5-ylmethyl)-2-({[4-(trifluoromethyl)phenyl]carbamoyl}amino)pentanamide]
2.5	nM (0.92)	CC(C)C[C@H](NC(=O)Nc1ccc(C(F)(F)F)cc1)C(=O)NC(C)(C)C(=O)O [Compound 139, 2-methyl-2-{[(2S)-4-methyl-2-({[4-(trifluoromethyl)phenyl]carbamoyl}amino)pentanoyl]amino} propanoic acid]
13.8	nM (0.92)	CC(C)C1(CC(=O)NC(CO)CO)NC(=O)N(NC(=O)Nc2ccc(Br)cc2)C1=O (stereo not drawn) [Compound 142, 2-[1-{[(4-bromophenyl)carbamoyl]amino}-2,5-dioxo-4-(propan-2-yl)imidazolidin-4-yl]-N-(1,3-dihydroxypropan-2-yl)acetamide]
17.2	nM (1.0)	CCC1(CCc2ccccc2C(=O)O)NC(=O)N(NC(=O)Nc2ccc(Br)cc2)C1=O (stereo not drawn) [Compound 143, 2-[2-(1-{[(4-bromophenyl)carbamoyl]amino}-4-ethyl-2,5-dioxoimidazolidin-4-yl)ethyl]benzoic acid]

SMILES	EC50 [nM]	FPR2 (efficacy)
CCOP(=O)(CNC(=O)[C@H](CC(C)C)NC(=O)Nc1ccc(Br)cc1)OCC [Compound 112, diethyl ({[(2S)-2-{[(4-bromophenyl)carbamoyl]amino}-4-methylpentanoyl]amino}methyl)phosphonate]	0.48	
CCOP(=O)(CNC(=O)[C@@H](NC(=O)Nc1ccc(Br)cc1)[C@@H](C)CC)OCC [Compound 114, diethyl ({[(2S,3S)-2-{[(4-bromophenyl)carbamoyl]amino}-3-methylpentanoyl]amino}methyl)phosphonate]	2.9	nM (1.0)
CCOP(=O)(O)CNC(=O)[C@@H](NC(=O)Nc1ccc(Br)cc1)[C@@H](C)CC [Compound 115, ethyl hydrogen ({[(2S,3S)-2-{[(4-bromophenyl)carbamoyl]amino}-3-methylpentanoyl]amino}methyl)phosphonate]	2.7	nM (0.88)
CC(C)C[C@H](NC(=O)Nc1ccc(Br)cc1)C(=O)NCc1cc(O)no1 [Compound 116, (2S)-2-{[(4-bromophenyl)carbamoyl]amino}-N-[(3-hydroxy-1,2-oxazol-5-yl)methyl]-4-methylpentanamide]		nM (1.0)
CCC[C@H](NC(=O)Nc1ccc(Br)cc1)C(=O)NCP(=O)(OCC)OCC [Compound 117, diethyl ({[(2S)-2-{[(4-bromophenyl)carbamoyl]amino}pentanoyl]amino}methyl) phosphonate]	0.27	nM (1.0)
CCOP(=O)(CNC(=O)[C@H](Cc1ccccc1)NC(=O)Nc1ccc(Br)cc1)OCC [Compound 118, diethyl ({[(2S)-2-{[(4-bromophenyl)carbamoyl]amino}-3-phenylpropanoyl]amino}methyl)phosphonate]	16.1	nM (0.93)
CCOP(=O)(CCNC(=O)[C@H](CC(C)C)NC(=O)Nc1ccc(Br)cc1)OCC [Compound 119, diethyl (2-{[(2S)-2-{[(4-bromophenyl)carbamoyl]amino}-4-methylpentanoyl]amino}ethyl) phosphonate]	16.1	
CCC[C@H](NC(=O)Nc1ccc(Br)cc1)C(=O)NCP(=O)(O)OCC [Compound 123, ethyl hydrogen ({[(2S)-2-{[(4-bromophenyl)carbamoyl]amino}pentanoyl]amino}methyl) phosphonate]		nM (0.96)
CCOP(=O)(O)CNC(=O)[C@H](Cc1ccccc1)NC(=O)Nc1ccc(Br)cc1 [Compound 126, ethyl hydrogen ({[(2S)-2-{[(4-bromophenyl)carbamoyl]amino}-3-phenylpropanoyl]amino}methyl)phosphonate]		nM (1.0)
CCOP(=O)(CNC(=O)[C@H](CC(C)C)NC(=O)Nc1ccc(C(F)(F)F)cc1)OCC [Compound 134, diethyl ({[(2S)-4-methyl-2-({[4-(trifluoromethyl)phenyl]carbamoyl}amino)pentanoyl]amino}methyl)phosphonate]	5.5	nM (0.97)
CCOP(=O)(O)CNC(=O)[C@H](CC(C)C)NC(=O)Nc1ccc(C(F)(F)F)cc1 [Compound 135, ethyl hydrogen ({[(2S)-4-methyl-2-({[4-(trifluoromethyl)phenyl]carbamoyl}amino)pentanoyl]amino}methyl)phosphonate]	1.9	nM (0.91)
CCOP(=O)(CNC(=O)[C@H](CC(C)C)NC(=O)Nc1ccc(SC)cc1)OCC [Compound 138, diethyl ({[(2S)-4-methyl-2-({[4-(methylsulfanyl)phenyl]carbamoyl}amino)pentanoyl]amino}methyl)phosphonate]	3.5	nM (0.91)
CCC1(CCc2ccccc2C(=O)OC)NC(=O)N(NC(=O)Nc2ccc(Br)cc2)C1=O (stereo not drawn) [Compound 141, methyl 2-[2-(1-{[(4-bromophenyl)carbamoyl]amino}-4-ethyl-2,5-dioxoimidazolidin-4-yl)ethyl]benzoate]	10.3	nM (0.92)
